Reference: patent US8815007B2, “Alkoxylated polyamines and polyetheramine polyol compositions for foam control” (priority 2007, dated 2014)

Assay: Equilibrium surface tension, double-probe bubble tensiometer
Format: physicochemical
Conditions: one bubble per second
Description: The antifoaming properties of the above compositions were evaluated using the blender foam test as described below. Surface tensions were determined using a […] OC-6000 double-probe bubble tensiometer. Equilibrium surface tensions were determined on 0.1% active solutions in deionized water at 25° C. by using a bubble rate of one bubble per second. […] Surface tension measurements were carried out using a Sensation QC-6000 double-probe bubble tensiometer from the Sensation Division of Chem-Dyne Research Corp. of Mesa, Ariz.

Surface Tension (Table 2, 0.1% active solutions in deionized water at 25° C.): 36.2 mN/m | Surface Tension (Table 3, 0.1% active solutions in deionized water at 25 deg C.): 36.2 mN/m
Substance: diethylenetriamine/2 mol 1-epoxyoctane adduct [Example 2]
